Test results from patent US20120029040A1, “ANIMAL ECTOPARASITE-CONTROLLING AGENT” (priority 2010, published 2012).

Columns and labels:
[1] = system: ticks (Haemaphysalis longicornis); experiment: Dropping application against dog-infested ticks; type: in vivo
Procedure: Dropping Application Against Dog-Infested Ticks (Haemaphysalis longicornis)
Each (0.375 or 1.5 g) of the present hydrazide compound (1) and Comparative compound (52) was dissolved in diethylene glycol monoethyl ether (6.0 g) to prepare a test solution. Said test solution was directly dropped on the skin of the neck and back of the dog while pushing aside fur thereon at a rate of 0.1 ml per 1 kg of the dog's body weight (dose amount: 5 or 20 mg/kg). This is referred to as a test group. On the other hand, diethylene glycol monoethyl ether alone was applied dropwise to a placebo group.
Twenty eight (28) days later, 100 test ticks were deposited on each dog. Two (2) days after the deposit, the number of living ticks, which were infesting the dogs, was examined. When the examination was completed, all infested ticks were removed from the dogs. The infestation rate and control rate were calculated by the following formulae: […]
Method of calculating infestation rate and control rate at 30 days after the application:
Infestation rate (%) at X days after application=(number of living ticks at X days/number of ticks deposited)×100
(§1) Control rate (%) at X days after application=(infestation rate of placebo group at X days−infestation rate of test group at X days)/infestation rate of placebo group at X days×100
(§2) In addition, if an infestation rate of a test group is higher than a placebo group, then the control rate is deemed to be 0%.

[2] = system: ticks (Haemaphysalis longicornis); experiment: Dropping application against mouse-infested ticks; type: in vivo; conditions: 0.1% w/v solution 200 μL dropwise to whole body surface, 2 days after application
Procedure: Dropping Application Against Mouse-Infested Ticks (Haemaphysalis longicornis)
The previous day before dropping application, 30 test ticks (Haemaphysalis longicornis, young ticks) were deposited on a mouse. Before the dropping application, uninfested ticks were removed.
The present hydrazide compound (1) (5 mg) was dissolved in a mixture (5 mL) of propylene carbonate and diethylene glycol monoethyl ether in equal amounts to prepare a 0.1% w/v solution. Said solution (200 μL) was applied dropwise to the whole body surface of a mouse with a pipette. To a control group, the mixture (200 μL) alone was applied. Each application was repeated 3 times per group.
Two (2) days after the application, the number of dead ticks was examined and the mortality was calculated by the following formula:
Mortality (%)=100×(number of dead ticks/infested ticks before dropping application)

[3] = system: cat fleas (Ctenocephalides felis); experiment: Oral administration against mouse-infested cat fleas; type: in vivo; conditions: 20 mg in 10 mL test solution at 10 mL per 1 kg body weight, fleas deposited after administration, 2 days later
Procedure: Oral Administration Against Mouse-Infested Cat Fleas (Ctenocephalides Felis)
The present hydrazide compound (1) (20 mg) was dissolved in dimethylformamide (680 mg), and thereto a corn oil was added to prepare a test solution (10 mL). Said test solution was orally administered to the mouse at a rate of 10 mL per 1 kg of the body weight of the mouse with a gastric sonde. To a control group, a 7% dimethylformamide/corn oil solution alone was orally administered. Each administration was repeated 3 times per group.
After the oral administration, 20 cat fleas were deposited on each mouse. Two (2) days later, the number of cat fleas was examined and the mortality was calculated by the following formula:
Mortality (%)=100×(number of dead cat fleas/number of cat fleas tested)

[4] = system: cat fleas (Ctenocephalides felis); experiment: Oral administration against cat-infested cat fleas; type: in vivo; conditions: oral with cat food, dose 20 mg/kg
Procedure: Oral Administration Against Cat-Infested Cat Fleas (Ctenocephalides felis)
Each of the present hydrazide compound (1) and Comparative compound (52) was mixed with a cat food, and orally administered to a cat in a dose amount of 20 mg per 1 kg of the cat's body weight. This is referred to as a test group. On the other hand, the cat food alone was fed to a placebo group.
Forty two (42) days later, 50 test fleas were deposited on each cat. Two (2) days after the deposit, the number of living fleas, which were infesting the cats, was examined. When the examination was completed, all infested fleas were removed from the cats. The infestation rate and control rate were calculated by the following formulae: […]
Method of calculating infestation rate and control rate at 44 days after the administration:
Infestation rate (%) at X days after administration=(number of living fleas at X days/number of fleas deposited)×100
Control rate (%) at X days after administration=(infestation rate of placebo group at X days−infestation rate of test group at X days)/infestation rate of placebo group at X days×100
as §2

[5] = system: ticks (Haemaphysalis longicornis); experiment: Oral administration against dog-infested ticks; type: in vivo; conditions: dog (beagle), oral gelatin capsules
Procedure: Oral Administration Against Dog-Infested Ticks (Haemaphysalis longicornis)
The previous day before oral administration, 100 test ticks (Haemaphysalis longicornis, young ticks) were deposited on a dog (beagle). Before the oral administration, infested ticks were counted.
Each of the present hydrazide compound (1) and Comparative compound (52) was filled into gelatin capsules, and forcibly and orally administered to a dog in a dose amount of 5 mg or 20 mg per 1 kg of the dog's body weight. This is referred to as a test group. On the other hand, gelatin capsules alone was orally administered to a placebo group.
Two (2) days after the administration, the number of living ticks, which were infesting the dogs, was examined.
When the examination was completed, all infested ticks were removed from the dogs. The infestation rate and control rate were calculated by the following formulae: […]
Method of calculating infestation rate and control rate at the initial stage (2 days) after the administration:
Infestation rate (%) at X days after administration=(number of living ticks at X days/number of living ticks before administration)×100
Control rate (%) at X days after administration (infestation rate of test group before administration−infestation rate of test group at X days)/infestation rate of test group before administration×100
as §2

[6] = system: ticks (Haemaphysalis longicornis); experiment: Oral administration against mouse-infested ticks; type: in vivo; conditions: 20 mg in 10 mL test solution at 10 mL per 1 kg body weight, 2 days after administration
Procedure: Oral Administration Against Mouse-Infested Ticks (Haemaphysalis longicornis)
The previous day before oral administration, 30 test ticks (Haemaphysalis longicornis, young ticks) were deposited on a mouse. Before the oral administration, uninfested ticks were removed.
The present hydrazide compound (1) (20 mg) was dissolved in dimethylformamide (680 mg), and thereto a corn oil was added to prepare a test solution (10 mL). Said test solution was orally administered to the mouse at the rate of 10 mL per 1 kg of the body weight of the mouse with a gastric sonde. To a control group, a 7% dimethylformamide/corn oil solution alone was orally administered. Each administration was repeated 3 times per group.
Two (2) days after the administration, the number of dead ticks was examined and the mortality was calculated by the following formula:
Mortality (%)=100×(number of dead ticks/infested ticks before oral administration)

[7] = system: cat fleas (Ctenocephalides felis); experiment: Dropping application against cat-infested cat fleas; type: in vivo
Procedure: Dropping Application Against Cat-Infested Cat Fleas (Ctenocephalides felis)
The previous day before dropping application, 50 test fleas (cat flea adults) were deposited on a cat. Before the dropping application, infested fleas were counted.
Each (0.75 or 1.5 g) of the present hydrazide compound (1) and Comparative compound (52) was dissolved in diethylene glycol monoethyl ether (6.0 g) to prepare a test solution. Said test solution was directly dropped on the skin of the neck and back of the cat while pushing aside fur thereon on at a rate of 0.1 ml per 1 kg of the cat's body weight (dose amount: 10 or 20 mg/kg). This is referred to as a test group. On the other hand, diethylene glycol monoethyl ether alone was applied dropwise to a placebo group.
Two (2) days after the application, the number of living fleas, which were infesting the cats, was examined. When the examination was completed, all infested fleas were removed from the cats.
Twenty eight (28) days later, 50 test fleas were re-deposited on each cat. Two (2) days after the re-deposit, the number of living fleas, which were infesting the cats, was examined. When the examination was completed, all infested fleas were removed from the cats. The infestation rate and control rate were calculated by the following formulae: […]
(i) Method of calculating infestation rate and control rate at the initial stage (2 days) after the application:
Infestation rate (%) at X days after application=(number of living fleas at X days/number of living fleas before application)×100
Control rate (%) at X days after application=(infestation rate of test group before application−infestation rate of test group at X days)/infestation rate of test group before application×100
(ii) Method of calculating infestation rate and control rate at 30 days after the application:
Infestation rate (%) at X days after application=(number of living fleas at X days/number of fleas deposited)×100
as §1, §2

[8] = system: ticks (Haemaphysalis longicornis); experiment: Pesticidal activity on ticks in filter paper test; conditions: 48 h, 100 mg/m^2, non-blood-fed young ticks, 2 days
Procedure: Pesticidal Activity on Ticks (Haemaphysalis longicornis) in Filter Paper Test
Each (5 mg) of the present hydrazide compounds (1) and (2) was dissolved in acetone (10 mL), and this acetone solution (1 mL) was uniformly applied onto one side of a filter paper (TOYO No. 2; 5×10 cm; the surface area of the filter paper was 50 cm^2, and thus the amount of the present hydrazide compound applied was 100 mg/m^2). After drying, said filter paper was folded, and the both sides of the paper were clipped to form a bag. Into this bag, test ticks (Haemaphysalis longicornis, non-blood-fed young ticks, 10 ticks/group) were added, and the opening was clipped to seal the bag. Two (2) days later, the number of dead ticks was examined and the mortality was calculated by the following formula:
Mortality (%)=100×(number of dead ticks/number of ticks tested)

SMILES | Tick control rates (%) at 30 days after the application ([1]; dose 5 mg/kg) [%] | Tick control rates (%) at 30 days after the application ([1]; dose 20 mg/kg) [%] | Mortality [2] [%] | Mortality [3] [%] | Flea control rates (%) at 44 days after the administration [4] [%] | Tick control rates (%) at 2 days after the application ([5]; dose 5 mg/kg) [%] | Tick control rates (%) at 2 days after the application ([5]; dose 20 mg/kg) [%] | Mortality [6] [%] | Flea control rates (%) at 2 days after the application ([7]; dose 10 mg/kg) [%] | Flea control rates (%) at 30 days after the application ([7]; dose 10 mg/kg) [%] | Flea control rates (%) at 2 days after the application ([7]; dose 20 mg/kg) [%] | Flea control rates (%) at 30 days after the application ([7]; dose 20 mg/kg) [%] | mortality at 100 mg/m2 [8] [%]
O=C(NNc1cc(C2=NOC(c3cc(Cl)cc(Cl)c3)(C(F)(F)F)C2)ccc1Cl)C1CC1 (stereo not drawn) [Compound (1), N′-{2-chloro-5-[5-(3,5-dichlorophenyl)-5-trifluoromethyl-4,5-dihydroisoxazol-3-yl]phenyl}cyclopropanecarbohydrazide] | 100 | 100 | ≥ 70 | ≥ 90 | 94 | 100 | 100 | ≥ 90 | 92 | 84 | 96 | 94 | 
CN(NC(=O)C1CC1)c1cc(C2=NOC(c3cc(Cl)cc(Cl)c3)(C(F)(F)F)C2)ccc1Cl (stereo not drawn) [(2), N′-methyl-N′-{2-chloro-5-[5-(3,5-dichlorophenyl)-5-trifluoromethyl-4,5-dihydroisoxazol-3-yl]phenyl}cyclopropanecarbohydrazide] |  |  |  |  |  |  |  |  |  |  |  |  | ≥ 90
CC(=O)NNc1cc(C2=NOC(c3cc(Cl)cc(Cl)c3)(C(F)(F)F)C2)ccc1Cl (stereo not drawn) [Comparative compound (52), N′-{5-[5-(3,5-dichlorophenyl)-5-trifluoromethyl-4,5-dihydroisoxazol-3-yl]-2-chlorophenyl}acetohydrazide, reference compound] | 29 |  |  |  | 68 | 26 |  |  | 58 | 74 |  |  | 
